Key:
M14 = assay: cells; conditions: Homo sapiens
MALME-3M = conditions: Melanoma, five-dose 0.01–100 µM
SN12C = conditions: Renal cancer, five-dose 0.01–100 µM
HL-60(TB) = conditions: Leukaemia, five-dose 0.01–100 µM
TK-10 = conditions: TK-10, Renal cancer; five-dose 0.01–100 µM
RXF 393 = conditions: RXF 393, Renal cancer; five-dose 0.01–100 µM
ACHN [1] = conditions: Renal cancer, five-dose 0.01–100 µM
CNS cancer subpanel = assay: NCI five-dose screen, subpanel MG-MID; assay type: cell-based, human
Description: (§1) (Figures S53–S56 in Supporting Information). This assay evaluates GI50, TGI, and LC50 parameters, as cited in Table 1. Their values correspondingly represent the GI level, cytostatic impact, and cytotoxicity parameter. Furthermore, based on the GI50 values, the mean graph midpoints (MG-MID) for both full NCI 59 cell panel and subpanel cancer cell lines were evaluated, affording a median potency parameter for the examined compound 6i, as depicted in Table 2.
(§2) Moreover, the selectivity index (SI) of the most efficient analogue 6i was calculated from the division of full-panel MG-MID by subpanel MG-MID. A value greater than 6 implies high selectivity, whereas a ratio from 3 to 6 denotes moderate selectivity. Otherwise, the compound is referred to as non-selective.[24] […] Therefore, the outstanding anti-cancer profile of compound 6i against the herein examined NCI-59 cell panels inspired us to explore its mechanism of action further.
(§3) The designed analogues were submitted to NCI-Chemotherapeutic Agents Repository (MD, USA) for screening on a panel of 59 cancer cell lines. All compounds were initially examined at 10 µM concentration (Single-Dose Screen), and then the most efficient analogue 6i was screened further at 0.01–100 µM (Five-Dose Screen). The screening procedures were performed according to NCI-Drug Evaluation Branch protocol using SRB protein assay, as described previously[21]^,[66]. The experimental procedures were detailed in the Supporting Information.

Renal cancer subpanel = assay: NCI five-dose screen, subpanel MG-MID; assay type: cell-based, human
Description: as §1, §2, §3

Leukaemia subpanel = assay: NCI five-dose screen, subpanel MG-MID; assay type: cell-based, human
Description: as §1, §2, §3

Breast cancer subpanel = assay: NCI five-dose screen, subpanel MG-MID; assay type: cell-based, human
Description: as §1, §2, §3

Colon cancer subpanel = assay: NCI five-dose screen, subpanel MG-MID; assay type: cell-based, human
Description: as §1, §2, §3

Prostate cancer subpanel = assay: NCI five-dose screen, subpanel MG-MID; assay type: cell-based, human
Description: as §1, §2, §3

Ovarian cancer subpanel = assay: NCI five-dose screen, subpanel MG-MID; assay type: cell-based, human
Description: as §1, §2, §3

[2] = tested on: Non-small cell lung cancer subpanel; assay: NCI five-dose screen, subpanel MG-MID; assay type: cell-based, human
Description: as §1, §2, §3

Melanoma subpanel = assay: NCI five-dose screen, subpanel MG-MID; assay type: cell-based, human
Description: as §1, §2, §3

NCI-H460 = assay: cells; conditions: Homo sapiens
SK-OV-3 = assay: cells; conditions: Homo sapiens
OVCAR-8 = assay: cells; conditions: Homo sapiens
786-0 = assay: cells; conditions: Homo sapiens
HT29 = conditions: HT29, Colon cancer; five-dose 0.01–100 µM
CAKI-1 = assay: cells; conditions: Homo sapiens
UO-31 = assay: cells; conditions: Homo sapiens
SK-MEL-28 = conditions: SK-MEL-28, Melanoma; five-dose 0.01–100 µM
ACHN [3] = assay: cells; conditions: Homo sapiens
SK-MEL-5 = conditions: SK-MEL-5, Melanoma; five-dose 0.01–100 µM
SK-MEL-2 = conditions: SK-MEL-2, Melanoma; five-dose 0.01–100 µM
SF-295 = assay: cells; conditions: Homo sapiens
UACC-257 = conditions: UACC-257, Melanoma; five-dose 0.01–100 µM
T-47D = conditions: Breast cancer, five-dose 0.01–100 µM
MDA-MB-435 [4] = conditions: MDA-MB-435, Melanoma; five-dose 0.01–100 µM
MDA-MB-435 [5] = assay: cells; conditions: Homo sapiens

CCOC(=O)CC[C@H](NC(=O)c1ccc(NC(=O)Cn2cnc3c(c(C)nn3-c3ccc(Br)cc3)c2=O)cc1)C(=O)OCC [Compound 6i]
GI50 (M14; M14): > 100 µM | CC50 (M14; M14, read-out: LC50): > 100 µM | TGI (MALME-3M): 29.9 µM | TGI (SN12C): >100 µM | TGI (HL-60(TB)): >100 µM | TGI (TK-10): 86.2 µM | TGI (RXF 393): 50.9 µM | TGI (ACHN [1]): 34.3 µM | MG-MID (CNS cancer subpanel; CNS cancer subpanel, based on GI50): 12.70 µM | Selectivity index (CNS cancer subpanel; CNS cancer, full-panel MG-MID / subpanel MG-MID): 1.61 | MG-MID (Renal cancer subpanel; Renal cancer subpanel, based on GI50): 19.19 µM | Selectivity index (Renal cancer subpanel; Renal cancer, full-panel MG-MID / subpanel MG-MID): 1.06 | MG-MID (Leukaemia subpanel; Leukaemia subpanel, based on GI50): 68.03 µM | Selectivity index (Leukaemia subpanel; Leukaemia, full-panel MG-MID / subpanel MG-MID): 0.30 | MG-MID (Breast cancer subpanel; Breast cancer subpanel, based on GI50): 15.29 µM | Selectivity index (Breast cancer subpanel; Breast cancer, full-panel MG-MID / subpanel MG-MID): 1.33 | MG-MID (Colon cancer subpanel; Colon cancer subpanel, based on GI50): 18.34 µM | Selectivity index (Colon cancer subpanel; Colon cancer, full-panel MG-MID / subpanel MG-MID): 1.11 | MG-MID (Prostate cancer subpanel; Prostate cancer subpanel, based on GI50): 6.63 µM | Selectivity index (Prostate cancer subpanel; Prostate cancer, full-panel MG-MID / subpanel MG-MID): 3.08 | MG-MID (Ovarian cancer subpanel; Ovarian cancer subpanel, based on GI50): 16.52 µM | Selectivity index (Ovarian cancer subpanel; Ovarian cancer, full-panel MG-MID / subpanel MG-MID): 1.23 | MG-MID ([2]; Non-small cell lung cancer subpanel, based on GI50): 10.62 µM | Selectivity index ([2]; Non-small cell lung cancer, full-panel MG-MID / subpanel MG-MID): 1.92 | MG-MID (Melanoma subpanel; Melanoma subpanel, based on GI50): 16.8 µM | Selectivity index (Melanoma subpanel; Melanoma, full-panel MG-MID / subpanel MG-MID): 1.21 | GI50 (NCI-H460; NCI-H460): 13.7 µM | CC50 (NCI-H460; NCI-H460, read-out: LC50): 86.9 µM | GI50 (SK-OV-3; SK-OV-3): 21.8 µM | CC50 (SK-OV-3; SK-OV-3, read-out: LC50): > 100 µM | GI50 (OVCAR-8; OVCAR-8): 8.17 µM | CC50 (OVCAR-8; OVCAR-8, read-out: LC50): > 100 µM | GI50 (786-0; 786-0): 8.66 µM | CC50 (786-0; 786-0, read-out: LC50): > 100 µM | TGI (HT29): 71.7 µM | GI50 (CAKI-1; CAKI-1): 10.4 µM | CC50 (CAKI-1; CAKI-1, read-out: LC50): 47 µM | GI50 (UO-31; UO-31): 18.1 µM | CC50 (UO-31; UO-31, read-out: LC50): > 100 µM | TGI (SK-MEL-28): 22.5 µM | GI50 (ACHN [3]): 15.1 µM | CC50 (ACHN [3]; read-out: LC50): 78.3 µM | TGI (SK-MEL-5): 43.1 µM | TGI (SK-MEL-2): 89.1 µM | GI50 (SF-295; SF-295): 14.2 µM | CC50 (SF-295; SF-295, read-out: LC50): 71.6 µM | TGI (UACC-257): >100 µM | TGI (T-47D): >100 µM | TGI (MDA-MB-435 [4]): 34.3 µM | GI50 (MDA-MB-435 [5]; MDA-MB-435): 12.2 µM | CC50 (MDA-MB-435 [5]; MDA-MB-435, read-out: LC50): 96.1 µM

From publication PMC10120551, “Novel Glu-based pyrazolo[3,4-d]pyrimidine analogues: design, synthesis and biological evaluation as DHFR and TS dual inhibitors” (Journal of Enzyme Inhibition and Medicinal Chemistry, 2023)
